Experimental data from paper PMC10608021, “Angiotensin-I-Converting Enzyme (ACE)-Inhibitory Peptides from the Collagens of Monkfish (Lophius litulon) Swim Bladders: Isolation, Characterization, Molecular Docking Analysis and Activity Evaluation” (Marine Drugs, 2023).
Where two headings read alike, the source gives them in different places.

What was measured:
[1] = system: HUVECs, nitric oxide (NO) level; assay: NO production in HUVECs (assay kit); format: cell-based, Human; conditions: for NO level in HUVECs / NO production level in HUVECs: control 35.01 ± 1.38 µM; for NO level in HUVECs / NO content in NE-treated HUVECs / NO production level in HUVECs: mean ± SD, n = 3; for NO content in NE-treated HUVECs: peptide 300 μM + NE, NE alone 21.34 ± 1.24 µM; for NO production level in HUVECs: peptide 300 μM, 24 h, without NE; for NO content in HUVECs, result in words: treatment with peptide
Protocol: (§1) HUVECs were cultured in DMEM at 37 °C in a humidified 5% CO2 atmosphere, and the DMEM contained penicillin (100 U/mL), FBS (10%, v/v) and streptomycin ([…]). After 24 h, the cells were used for follow-up experiments.
(§2) After treatment with ACEi peptides (MHP6, MHP7 and MHP9, respectively) for 24 h, the NO and ET-1 content in the HUVECs was separately determined according to their assay kits as per manufacturers’ protocol.

[2] = system: HUVECs, endothelin-1 (ET-1) level; assay: ET-1 production in HUVECs (assay kit); format: cell-based, Human; conditions: for ET-1 content in NE-treated HUVECs: peptide 300 μM + NE (0.5 μM), NE alone 69.58 ± 3.11 pg/mL; for ET-1 content in HUVECs, result in words: peptide at 100–300 μM
Protocol: as §1, §2

ACE [3] = biological target: T1, ACE (Homo sapiens, UniProt P12821); assay: ACEi activity (FAPGG substrate); format: biochemical; conditions: 1.5 mg/mL; FAPGG (3 mM) substrate, ACE 1.25 mU, 37 °C, 0.5 h incubation, HPLC at 228 nm; mean ± SD, n = 3
Protocol: The ACEi activity of PSC-MH, fractions and peptides (MHP1-MHP12) was determined by using FAPGG as a substrate. Briefly, the initial volume was made up of a 50 µL volume of FAPGG (3 mM), ACE (1.25 mU) and the sample solution, respectively. These solutions were first preheated at 37 °C for 0.5 h […], and mixed and incubated for an additional 0.5 h. After that, 150 µL of glacial acetic acid was added to the solution to inactivate ACE. After that, the content of hippuric acid (HA) in the reaction mixture produced from the substrate reactions catalyzed by ACE was determined using HPLC at 228 nm. In short, using an isocratic system (pH 3.0) made up of 12.5% (v/v) acetonitrile in deionized water, the amount of free HA was evaluated using an HPLC system (Agilent 1200, Agilent Ltd., Santa Clara, CA, USA) on a Zorbax SB C-18 column (4.6 × 250 mm, 5 µm). The sample (10 µL) was eluted at a flow rate of 1.0 mL/min, and the absorbance at 228 nm was monitored to obtain the measurement. A total of 50 µL of PBS buffer, used as the sample substitute, was added into the control reaction mixture. ACEi activity was calculated as follows: ACEi activity (%) = [(HA control − HA sample)/HA control] × 100%(1)

HUVECs [4] = assay: Viability of HUVECs (MTT); format: cell-based, Human; conditions: for Cell viability of HUVECs: 400 µM; for Viability of HUVECs, result in words: 400 μM, 24 h, versus control and other concentration groups, p < 0.05
Protocol: as §1
The MTT method was employed to detect the viability of HUVECs incubated with MHP6, MHP7 and MHP9 [38]. In brief, HUVECs were seeded in 96-well plates and cultured for 24 h. Subsequently, HUVECs were separately treated with MHP6, MHP7 and MHP9 (100, 200, 300 or 400 μM) at 37 °C. After 24 h, MTT was added into the cell culture to reach a final concentration of 2 mg/mL. After 4 h, DMSO was added into each well and the absorbance at 490 nm was determined. Cell viability was calculated according to the following formula:Cell viability (%) = (Asample/Acontrol) × 100(2)

ACE [5] = biological target: T1, ACE; conditions: cited from earlier work
Protocol: To illustrate the ACEi mechanism of MHP6, MHP7 and MHP9, a molecular docking assay was conducted (Figure 7), and the affinities of MHP6, MHP7 and MHP9 with ACE were −7.3, −10.9 and −9.4 kcal/mol, respectively, which were similar to those of ACEi peptides from miiuy croakers (IKSW: −9.3 kcal/mol), M. edulis (LSFR: −8.5 kcal/mol), rice bran (YSK: −7.9 kcal/mol), tuna milts (YEGDP: −8.8 kcal/mol) and soybean (LVLL: −8.6 kca ...

HUVECs [6] = conditions: cited from earlier work; for NO and ET-1 production in HUVECs: ref [73]; for ET-1 secretion and NO generation in HUVECs: peptide from tuna roes, ref [31]
Source text: (§3) In addition, ET-1 is a known vasoconstriction factor, similar to Ang II, that can result in endothelial dysfunction associated with high blood pressure and atherosclerosis.

[7] = system: Nrf2 and heme oxygenase-1 (HO-1) proteins in HUVECs; conditions: oxidative damage, ref [73]; cited from earlier work
Source text: as §3

[8] = peptide 300 μM, 24 h, without NE, control 54.87 ± 2.57 pg/mL, mean ± SD, n = 3

T1 sequence (P12821 30-1306, species assumed): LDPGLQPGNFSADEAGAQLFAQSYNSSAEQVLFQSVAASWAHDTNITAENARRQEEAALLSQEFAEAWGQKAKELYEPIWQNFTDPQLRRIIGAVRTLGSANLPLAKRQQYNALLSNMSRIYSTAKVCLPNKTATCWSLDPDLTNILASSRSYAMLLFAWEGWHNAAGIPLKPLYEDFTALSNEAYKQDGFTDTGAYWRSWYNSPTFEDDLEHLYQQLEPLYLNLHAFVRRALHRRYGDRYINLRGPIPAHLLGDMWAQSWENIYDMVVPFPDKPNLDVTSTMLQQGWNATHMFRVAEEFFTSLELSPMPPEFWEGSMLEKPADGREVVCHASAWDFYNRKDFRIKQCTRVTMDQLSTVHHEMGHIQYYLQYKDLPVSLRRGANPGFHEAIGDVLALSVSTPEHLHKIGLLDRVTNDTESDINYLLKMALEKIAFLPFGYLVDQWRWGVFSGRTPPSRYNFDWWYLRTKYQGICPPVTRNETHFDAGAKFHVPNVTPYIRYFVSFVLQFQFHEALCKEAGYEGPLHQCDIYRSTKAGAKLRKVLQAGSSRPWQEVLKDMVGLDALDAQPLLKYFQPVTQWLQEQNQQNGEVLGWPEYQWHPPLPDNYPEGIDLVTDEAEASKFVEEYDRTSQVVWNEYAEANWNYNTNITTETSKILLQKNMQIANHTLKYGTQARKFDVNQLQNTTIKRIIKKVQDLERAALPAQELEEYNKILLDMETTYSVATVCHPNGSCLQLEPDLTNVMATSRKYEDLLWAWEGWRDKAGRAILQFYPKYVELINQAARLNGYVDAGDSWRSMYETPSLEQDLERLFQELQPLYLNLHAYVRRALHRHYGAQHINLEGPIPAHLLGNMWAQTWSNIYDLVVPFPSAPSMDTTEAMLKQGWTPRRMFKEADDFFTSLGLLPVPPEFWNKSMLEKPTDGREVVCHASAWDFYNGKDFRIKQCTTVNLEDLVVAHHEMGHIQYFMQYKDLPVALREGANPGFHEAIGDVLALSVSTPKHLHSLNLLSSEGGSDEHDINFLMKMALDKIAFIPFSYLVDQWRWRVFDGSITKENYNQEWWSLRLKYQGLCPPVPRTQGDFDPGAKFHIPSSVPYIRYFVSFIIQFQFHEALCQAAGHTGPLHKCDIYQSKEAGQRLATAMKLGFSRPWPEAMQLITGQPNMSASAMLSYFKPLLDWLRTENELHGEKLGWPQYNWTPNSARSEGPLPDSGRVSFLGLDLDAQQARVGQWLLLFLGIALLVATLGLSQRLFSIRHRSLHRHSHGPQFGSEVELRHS

With `C[C@H](CS)C(=O)N1CCC[C@H]1C(=O)O` [Cap, captopril, reference compound] the “NO level in HUVECs” value ([1]; Cap treatment) was 56.18 ± 2.58 µM and the “ET-1 level in HUVECs” value ([2]; Cap 1.0 μM, control 54.87 ± 2.57 pg/mL, mean ± SD, n = 3) was 32.25 ± 1.26 pg/mL.

For `NC[C@H](O)c1ccc(O)c(O)c1` [NE, norepinephrine, reference compound], the “NO level in HUVECs” value ([1]; NE treatment, p < 0.001) was 21.34 ± 1.24 µM and the “ET-1 content in HUVECs” value ([2]; NE 0.5 μM, control 54.87 ± 2.57 pg/mL, p < 0.001, mean ± SD, n = 3) was 69.58 ± 3.11 pg/mL.

In the case of H-FDGPY-OH [MHP7, Phe-Asp-Gly-Pro-Tyr], the ACEi activity (ACE [3]) is reported as 84.99 ± 2.34%, the “Cell viability of HUVECs” value (HUVECs [4]) is reported as 90.39 ± 3.19% and the “Viability of HUVECs, result in words” value (HUVECs [4]) is reported as “might lead to some adverse harm to the function of HUVECs”. The “NO content in NE-treated HUVECs” value ([1]; p < 0.001) was 26.31 ± 1.22 µM, the “NO production level in HUVECs” value [1] was 48.91 ± 2.35 µM and the “NO content in HUVECs, result in words” value [1] was “significantly increased”. For the same compound, the “ET-1 content in NE-treated HUVECs” value ([2]; p < 0.001, mean ± SD, n = 3) was 61.23 ± 1.89 pg/mL, the “ET-1 content in HUVECs” value [2, 8] was 43.87 ± 1.73 pg/mL and the “ET-1 content in HUVECs, result in words” value ([2]; p < 0.001) was “significantly reduce the ET-1 content in HUVECs”.

For H-SEGPK-OH [MHP6, Ser-Glu-Gly-Pro-Lys], the ACEi activity (ACE [3]) was 86.34 ± 3.25%, the “Cell viability of HUVECs” value (HUVECs [4]) was 91.27 ± 2.64% and the “Viability of HUVECs, result in words” value (HUVECs [4]) was “might lead to some adverse harm to the function of HUVECs”. For the same compound, the “NO content in NE-treated HUVECs” value ([1]; p < 0.001) was 31.24 ± 1.29 µM, the “NO production level in HUVECs” value [1] was 51.68 ± 2.38 µM and the “NO content in HUVECs, result in words” value [1] was “significantly increased”. For the same compound, the “ET-1 content in NE-treated HUVECs” value ([2]; p < 0.001, mean ± SD, n = 3) was 57.62 ± 1.95 pg/mL, the “ET-1 content in HUVECs” value [2, 8] was 40.35 ± 1.96 pg/mL and the “ET-1 content in HUVECs, result in words” value ([2]; p < 0.001) was “significantly reduce the ET-1 content in HUVECs”.

With H-SPGPW-OH [MHP9, Ser-Pro-Gly-Pro-Trp] the ACEi activity (ACE [3]) was 85.39 ± 3.46%, the “Cell viability of HUVECs” value (HUVECs [4]) was 91.76 ± 3.22% and the “Viability of HUVECs, result in words” value (HUVECs [4]) was “might lead to some adverse harm to the function of HUVECs”. For the same compound, the “NO content in NE-treated HUVECs” value ([1]; p < 0.001) was 29.87 ± 1.34 µM, the “NO production level in HUVECs” value [1] was 49.83 ± 0.96 µM and the “NO content in HUVECs, result in words” value [1] was “significantly increased”. For the same compound, the “ET-1 content in NE-treated HUVECs” value ([2]; p < 0.001, mean ± SD, n = 3) was 58.44 ± 2.34 pg/mL, the “ET-1 content in HUVECs” value [2, 8] was 42.18 ± 2.09 pg/mL and the “ET-1 content in HUVECs, result in words” value ([2]; p < 0.001) was “significantly reduce the ET-1 content in HUVECs”.

For IKSW [ACEi peptide from miiuy croakers], the “Affinity with ACE” value (ACE [5]; peptide from miiuy croakers, ref [31]) is listed as -9.3 kcal/mol.

For IVTNWDDMEK, the “NO and ET-1 production in HUVECs” value (HUVECs [6]) is given as “regulate NO and ET-1 production in a concentration-dependent manner” and the “Expression levels of Nrf2 and HO-1 proteins” value [7] is given as “positively regulate the expression levels of Nrf2 and heme oxygenase-1 (HO-1) proteins”.

For LSFR, the “Affinity with ACE” value (ACE [5]; peptide from M. edulis, ref [30]) is listed as -8.5 kcal/mol.

For LVLL [ACEi peptide from soybean], the “Affinity with ACE” value (ACE [5]; peptide from soybean, ref [72]) is listed as -8.6 kcal/mol.

For VGPAGPRG, the “NO and ET-1 production in HUVECs” value (HUVECs [6]) is given as “regulate NO and ET-1 production in a concentration-dependent manner” and the “Expression levels of Nrf2 and HO-1 proteins” value [7] is given as “positively regulate the expression levels of Nrf2 and heme oxygenase-1 (HO-1) proteins”.

In the case of WGESF [from tuna roes], the “ET-1 secretion and NO generation in HUVECs” value (HUVECs [6]) is given as “significantly bring down ET-1 secretion and improve the NO generation in HUVECs”.

For WSPGF [from tuna roes], the “ET-1 secretion and NO generation in HUVECs” value (HUVECs [6]) is listed as “significantly bring down ET-1 secretion and improve the NO generation in HUVECs”.

For YEGDP, the “Affinity with ACE” value (ACE [5]; peptide from tuna milts, ref [32]) is given as -8.8 kcal/mol.
